Measurements published in patent publication US20240424477A1, “SYSTEM AND DEVICES FOR REMOVAL OF CONTAMINATES” (priority 2021, published 2024).

Columns and labels:
[1] = conventional drinking water treatment, literature; cited from earlier work
MO protein = assay: 19F NMR protein-ligand binding (peak height ratio B); design: species or system Moringa oleifera; conditions: PFAS 50 mg/L
Procedure: ^19F NMR. ^19F NMR measurements were taken on a Bruker AVANCE III 500 NMR. 3,000 scans were run for each sample with a 1 second relaxation delay. TFMAA was added to each sample as an internal standard. 90% H2O and 10% D20 were used for instrument lock and calibration. PFAS concentrations remained constant at 50 mg/L. […] of sample was used for each run. ^19F NMR spectra were obtained with a spectral width 113636.36 Hz and spectral frequency 470.57 MHz.
Spectrum were analyzed via MestreNova software for phase correction and baseline correction. Peak picking was completed automatically by the software. […] Intensities were normalized by TFMAA peak area at approximately −64.9 ppm. NMR data is included in the Supporting Information. The NMR peak height ratio, B, can be used to determine the relative ranking of binding affinities between protein-ligand complexes. B was calculated using Equation (1)
Where lb is the sum of ligand NMR heights in the presence of protein and lh is the sum of free ligand NMR heights.
^19F NMR. NMR can be used to study protein-ligand interactions by examining changes in peak height, peak width, and chemical shifts. A decrease in peak height indicates the formation of a protein-ligand complex. Previous literature has used ^19F NMR to look at PFAS binding to albumin proteins. In this work, PFAS (ligand) concentrations remain constant while MO protein concentrations were varied.

[2] = when protein concentrations increase

Compound | removal of PFOA and PFOS by coagulation [1] | binding affinity to MO protein (NMR peak height ratio, B) (MO protein; [2]) | binding affinity to MO protein (NMR peak height ratio, B) (MO protein; lower protein concentrations)
[Cl][Fe]([Cl])[Cl] [FeCl3, ferric chloride] | about 20% |  | 
O=C(O)C(F)(F)C(F)(F)C(F)(F)C(F)(F)C(F)(F)C(F)(F)C(F)(F)F [PFOA, perfluorooctanoic acid] |  | similar | 
O=S(=O)(O)C(F)(F)C(F)(F)C(F)(F)C(F)(F)C(F)(F)C(F)(F)C(F)(F)C(F)(F)F [PFOS, perfluorooctanesulfonic acid] |  | similar | stronger affinity than MO-PFOA
alum | about 20% |  | 
